Experimental data as given in PMC10537604, “Development and Assessment of 1,5–Diarylpyrazole/Oxime Hybrids Targeting EGFR and JNK–2 as Antiproliferative Agents: A Comprehensive Study through Synthesis, Molecular Docking, and Evaluation” (Molecules, 2023).

What was measured:
[1] = test system: Hela cell line; test: Cell cycle analysis, PI staining, flow cytometry; assay type: cell-based, human; conditions: for cell cycle arrest phase: Hela, PI staining
Method: This analysis was applied to investigate the effects of tested compounds on cell cycle distribution and on cell-death associated DNA fragmentation. The Hela cell line was analyzed flow cytometrically after propidium iodide (PI) staining, following the treatment of compounds 8g and 8i.
The supernatant was transferred to falcon tube for each plate and each well was washed twice with 3 mL PBS, Trypsin 1 mL was added, and plates were incubated for 3 to 5 min at 37 degrees, then 3 mL of the medium was added to separate cells, cells were centrifuged for 5 min, and supernatant was decanted. Then, it was washed again with 3 mL PBS, and 10 mL of medium was added. Cells were immediately fixed in ice cold 70% ethanol overnight at −20 °C. On the day of the analysis, cells were washed ×3 with PBS and re-suspended in propidium iodide (PI) for 15 min at room temperature, protected from light. Cell-cycle analysis was performed using flowcytometric analysis (BD FACS melody) and data obtained from cell cycle distribution was analyzed using FSC-W (Watson model) to estimate the percentage of cells in G1, S, and G2.

[2] = WST-8 cytotoxicity towards normal cell line PC12; assay type: cell-based, rat; conditions: rat, PC12 cells; WST-8 assay, six concentrations 1-100 μM; read-out: CC50 against PC12 cell line
Method: The evaluation of normal cell viability is fundamental in analyzing the efficacy of target compounds and is often used in conjunction with cytotoxicity tests to help understand how target compound toxicity affects normal cell health. […] A 100 μL aliquot of cells (10,000 cells/mL) was added to a 96 well plate and incubated for 24 h at 37 °C in a humidified incubator containing 5% CO2 in the air. […] Then, a 10 μL WST-8 solution (mixture of WST-8 and 1-methoxy PMS) was added to each well and the incubation continued for 3 h. The visible absorbance at 450 nm and 630 nm as the reference wavelength of each well was quantified using an MTP-310 absorbance microplate reader. Daunorubicin was used as a positive control. The results of cytotoxicity were recorded as growth inhibition percentages and as IC50 values.

[3] = test system: Hela cells; test: Apoptosis assay, annexin V/PI flow cytometry; assay type: cell-based, human; conditions: concentration double the IC50, 24 h
Text: For further investigation of the anticancer activity of compounds 8g and 8i, studies of apoptotic changes after treatment of Hela cells with these inhibitors were examined using fluorescent microscope and flowcytometry. Moreover, to discriminate between apoptosis and necrosis after the treatment of Hela cell with two inhibitors 8g and 8i at different concentrations, a fluorescent microscope was used to distinguish between apoptosis and necrosis based on their characteristic difference in morphology using annexin V and PI [52]. […] This was exposed in the cell membrane of the Hela cells after treatment with two inhibitors due to plasma membrane sprouting and chromatin concentration. The prolonged incubation of Hela cells with two inhibitors directed cells to necrosis, which was marked in red because of the PI staining of necrotic cells as a result of losing their dye-excluding ability owing to a loss of plasma membrane integrity and the dissolution of nuclear chromatin [53] (Figure S1).
Then, 200 µL of medium was added to separate cells, cells were centrifuged for 5 min, and supernatant was decanted. Then, it was washed twice with 100 µL PBS and 200 µL of buffer, 5 µL of PI& Annexin, and 200 µL of PBS was added for the test compounds. For control, 400 µL of PBS was added. […]

## COc1cc(/C(C)=N/O)ccc1OC(=O)c1cc(-c2ccc(C)cc2)n(-c2ccc(S(N)(=O)=O)cc2)n1 [Compound 8g, (E)–4–(1–(Hydroxyimino)ethyl)–2–methoxyphenyl 1–(4–sulfamoylphenyl)–5–p–tolyl–1H–pyrazole–3–carboxylate]
[1]; 48 h
  percentage of Hela cells at G2 phase: 20.5%
[1]
  cell cycle arrest phase: G2/M arrest
[2]
  CC50 at 24 h: 16.1 µM
[3]
  percentage of apoptotic Hela cells: 34.7%

## COc1cc(/C(C)=N/O)ccc1OC(=O)c1cc(-c2ccc(Cl)cc2)n(-c2ccc(S(N)(=O)=O)cc2)n1 [Compound 8i, (E)–4–(1–(Hydroxyimino)ethyl)–2–methoxyphenyl 5–(4–chlorophenyl)–1–(4–sulfamoyl phenyl)–1H–pyrazole–3–carboxylate]
[1]
  cell cycle arrest phase: combined S phase and G2 phase arrest
[1]; IC50 concentration, 24 h
  percentage of Hela cells at G2 phase: 18.2%
  percentage of Hela cells at S phase: 59.4%
[2]
  CC50 at 24 h: > 100 µM
[3]
  percentage of apoptotic Hela cells: 17.3%
